Assay [1] deals with HT29. The assay is described as follows: MTT cell viability assay. The format is cell-based. The note with it: Homo sapiens, HT-29. As for the experimental part: (§1) Both SW620 and HT29 cells were grown in an incubator at 37 °C under 5% CO2 condition with their respective media. After the cells were harvested, they were counted and seeded at 1 × 10^5 cells per well in a 96-well plate overnight before being treated with DMCH. The following day, cells were treated with various concentrations of DMCH. […] Following incubation for the designated time period, 20 μL of (5 mg/mL) MTT 3-[4, 5-dimethylthiazol-2-yl]-2, 5 diphenyltetrazolium bromide (Merck, Kenilworth, NJ, USA) reagent was added into each well and then cells were incubated again for another 3 to 4 h. Next, the solution was removed and 100 μL of dimethyl sulfoxide (DMSO) was added into the wells. Afterward, the plate was read at 575 nm using a microtiter plate reader (μQuant, Bio-Tek Instrument, Winooski, VT, USA). The results were analysed as the percentage proliferation of the cells regarding the concentration of the sample treated. The following formula was used to determine the percentage of viable cells:
(§2) Percentage of viability (%) = (Absorbance of sample at 570 nm)/(Absorbance of control at 570 nm) × 100.
A general note: Tetrazolium dyes change colour on reduction, which living cells bring about.

Assay [2] relates to SW620. The assay is described as follows: MTT cell viability assay. The format is cell-based. To be noted: Homo sapiens, SW-620. As for the experimental part: as §1, §2
Another assay relates to Splenocyctes. The assay is described as follows: MTT cell viability assay on normal cells. The format is cell-based. To be noted: splenocytes.
Assay [3] deals with HT29. The assay is described as follows: Annexin V/FITC assay (flow cytometry). The format is cell-based, human. To be noted: HT29, 72 h, DMCH at IC50. As to the method: (§3) The apoptosis effect on HT29 and SW620 cells was studied using an Annexin V fluorescence kit (BD Pharmingen, San Diego, CA, USA) according to the manufacturer’s instructions without any modifications. Briefly, cells were seeded for 24 h at a density of 2.0 × 10^5 cells per well in a 6-well plate. Then, the seeded cells were treated with the designated concentrations for 48 h and 72 h. After the 48 h (or 72 h) of treatment, the treated cells were harvested and collected as a pellet. Next, the pellet was resuspended in 400 μL of binding buffer and stained with 5 μL of FITC-Annexin-V and 5 μL of PI provided in the kit. Afterward, the cells were analysed using a Novocyctes flow cytometer (ACEA Biosciences Inc., San Diego, CA, USA).

Assay [4] has as its system SW620. The assay is described as follows: Annexin V/FITC assay (flow cytometry). The format is cell-based, human. The note with it: SW620, 72 h, DMCH at IC50. As to the method:
as §3
In general terms: A flow cytometer gives signals particle by particle.

Assay [5] deals with HT29. The assay is described as follows: Cell cycle analysis by flow cytometry. The format is cell-based, human. To be noted: HT29, 72 h. As to the method: (§4) The effect of the DMCH sample on the cell cycle of HT29 and SW620 cells was investigated using flow cytometry cell cycle analysis. Cell cycle assay was carried out using the CycleTEST Plus DNA Reagent Kit according to the instructions (BD Pharmingen, San Diego, CA, USA). The cells were seeded at a density of 2.0 × 10^5 cells/well overnight. Then, cells were treated with different dosages of DMCH based on the concentration results of the MTT assay for 48 h and 72 h. After the treatment, cells were collected, and the pellet was resuspended in 200 μL of trypsin (solution A) and RNAse (solution B) for 10 min each followed by 250 μL of propidium iodide (solution C) for 15 min. After that, flow cytometric analysis was performed within 3 h using a Novocytes flow cytometer (ACEA Biosciences Inc., San Diego, CA, USA).

Assay [6] deals with SW620. The assay is described as follows: Cell cycle analysis by flow cytometry. The format is cell-based, human. As for the experimental part: as §4
Assay [7] has as its system apoptosis-related proteins in HT29. The assay is described as follows: Human apoptosis proteome profiler. The format is cell-based. The note with it: HT29, DMCH (IC50) for 48 h. As to the method:
(§5) Colon cancer cell lines SW620 and HT29 that had been treated with DMCH for 48 h were investigated for the expression profiles of apoptosis-related proteins. This was conducted using the Human Apoptosis Array Kit (R&D Systems, Minneapolis, MN, USA). Firstly, the proteins from both cells were extracted using 600 µL of RIPA buffer (50 mM Tris-HCl, 150 mM NaCl, 1.0% TritonX-100, 0.5% sodium deoxycholate, 0.1% SDS) supplemented with 10 mg of pre-made protease inhibitor cocktails (Roche, Mississauga, ON, Canada). After that, the proteins were quantified using the Bradford assay (Sigma, St. Louis, MO, USA). Then, membranes were blocked by blocking buffer for an hour. At the same time, the proteins were prepared with the addition of 1 mL Lysis Buffer 17 to the protein lysate. The prepared protein was loaded onto the membrane and was incubated at 4 °C overnight. The following day, the membranes were washed three times with 20 mL of wash buffer provided in the kit. Next, the membrane was transferred into a 4-well multi-dish that contains the reconstituted detection antibody cocktails, and it was incubated for an hour on a shaker. Then, the membrane was again washed with a washing buffer three times. Two millilitres of Streptavidin-HRP was added onto the membrane followed by incubation for 30 min. Then, the membrane was washed three times. Afterward, the membrane was loaded with 1.0 mL of Chemi Reagent Mix and then the membrane was scanned using ChemiDoc XRS (Bio-Rad, Hercules, CA, USA).

For assay [8], the system named is apoptosis-related proteins in SW620. The assay is described as follows: Human apoptosis proteome profiler. The format is cell-based. The note with it: SW620, DMCH (IC50) for 48 h. As to the method: as §5
Assay [9] deals with HT29. The assay is described as follows: Acridine orange/propidium iodide (AO/PI) double staining assay. The format is cell-based, human. The note with it: HT29, DMCH at IC50, as incubation time increased (48 h, 72 h), p < 0.05. As for the experimental part:
(§6) Acridine orange/propidium iodide (AO/PI) double staining assay was performed on colon cancer cell lines to determine the mode of cell death microscopically. HT29 and SW620 cell lines were seeded in a 6-well plate at a density of 2 × 10^5 cells/well. Then, cells were treated with DMCH sample according to 48 h and 72 h concentrations. The treatment-free culture was used as a negative control, and cells were detached and collected at the end of each incubation time. Then, cells were washed with PBS and incubated with a 1:1 ratio of acridine orange (10 µg/mL) and propidium iodide (10 µg/mL). An amount of 10 µL of incubated suspension cells was placed on a slide and viewed immediately under a fluorescent microscope (Nikon FC-35DX, Nikon, Tokyo, Japan).

Assay [10] deals with SW620. The description is as above. To be noted: SW620, DMCH at IC50, as incubation time increased (48 h, 72 h), p < 0.05. The format is cell-based, human. As to the method: as §6
The mark [11] stands for this setting: Splenocyte, 24 h, read-out: IC50.
[12] abbreviates: Splenocyte, 48 h, read-out: IC50.
Where [13] appears, read: Splenocyte, 72 h, read-out: IC50.

The structures appear in SMILES notation. Read-outs that look alike come from different tables or passages of the source.

For `COc1cccc(/C=C2\CCC/C(=C\c3cccc(OC)c3OC)C2=O)c1OC` [DMCH, (2E,6E)-2,6-bis(2,3-dimethoxybenzylidene) cyclohexanone], the IC50 is > 30 µM in the assay with HT29 [1] (HT29, 24 h, read-out: IC50); 9.8 ± 0.553 µM with HT29 [1] (HT29, 48 h, read-out: IC50); 8.2 ± 0.761 µM in the assay with HT29 [1] (HT29, 72 h, read-out: IC50); 9.8 ± 0.55 µg/mL with HT29 [1] (HT29, as printed in abstract, time not stated, read-out: inhibitory concentration (IC50)); > 30 µM in the assay on SW620 [2] (SW620, 24 h, read-out: IC50); 7.5 ± 1.19 µM in the assay with SW620 [2] (SW620, 48 h, read-out: IC50). Also, the IC50 with SW620 [2] (SW620, 72 h, read-out: IC50) was 5 ± 0.157 µM; in the assay on SW620 [2] (SW620, as printed in abstract, time not stated, read-out: inhibitory concentration (IC50)), 7.5 ± 1.19 µg/mL; with Splenocyctes (setting [11]), > 30 µM; in the assay with Splenocyctes (setting [12]), > 30 µM; in the assay on Splenocyctes (setting [13]) it was > 30 µM; in the assay on Splenocyctes (24 h) it was “no IC50 values observed”. Besides, the IC50 result with Splenocyctes (48 h) and with Splenocyctes (72 h) was “no IC50 values observed” each time. Besides, the “early and late apoptotic/necrotic cells” value was 8.83 ± 0.42% in the assay on HT29 [3] and 15.70 ± 1.03% with SW620 [4]. In addition, the “cells in sub-G0/G1 phase” value with HT29 [5] is on record as 10.96± 0.94%; with SW620 [6] (SW620, 48 h) it was 0.15 ± 0.05%; in the assay on SW620 [6] (SW620, 72 h) it was 73.24 ± 1.65%. In addition, the “Bad Regulation” value in assay [7] and in assay [8] was “Up” each time. Moreover, the “Bax Regulation” value in [7] and in [8] was “Up” each time. In addition, the “Bcl x Regulation” value in [7] was “Down”; in [8], “Up”. Besides, the figures for the “Cytochrome c Regulation” value in [7] and in [8] were “Up” and “Down”, respectively. Further, the “Livin Regulation” value in assay [7] and in [8] was “Down” each time. In addition, the “Pro caspase 3 Regulation” value in assay [7] is listed as “Up”; in assay [8], “Down”. Besides, the “SMAC/Diablo Regulation” value is “Up” in [7] and “Down” in assay [8]. In addition, the “Cytochrome c Relative Intensity (Fold Change)” value in assay [8] (vs control) was −0.900 ± 0.006. The “Livin Relative Intensity (Fold Change)” value in assay [8] (vs control) was −0.900 ± 0.040. In addition, the “SMAC/Diablo Relative Intensity (Fold Change)” value in [8] (vs control) is −0.900 ± 0.070. Also, the “proportion of cells that exhibited early apoptosis and late apoptosis” value in the assay with HT29 [9] and in the assay on SW620 [10] was “significantly higher” throughout.
Take `COc1cc(/C=C/C(=O)CC(=O)/C=C/c2ccc(O)c(OC)c2)ccc1O` [curcumin]: the IC50 is > 30 µM in the assay with HT29 [1] (HT29, 24 h, read-out: IC50); 26.7 ± 1.53 µM in the assay with HT29 [1] (HT29, 48 h, read-out: IC50); 20.7 ± 1.16 µM in the assay on HT29 [1] (HT29, 72 h, read-out: IC50); > 30 µM with SW620 [2] (SW620, 24 h, read-out: IC50); 18.6 ± 0.321 µM in the assay on SW620 [2] (SW620, 48 h, read-out: IC50); 15.7 ± 1.52 µM in the assay with SW620 [2] (SW620, 72 h, read-out: IC50). Moreover, the IC50 in the assay with Splenocyctes (setting [11]), in the assay with Splenocyctes (setting [12]) and in the assay with Splenocyctes (setting [13]) was > 30 µM each time.

These data come from paper PMC7956430, “Cytotoxicity and Apoptosis Effects of Curcumin Analogue (2E,6E)-2,6-Bis(2,3-Dimethoxybenzylidine) Cyclohexanone (DMCH) on Human Colon Cancer Cells HT29 and SW620 In Vitro” (Molecules, 2021).
